The source of these data is patent publication EP1013767A1, “Method of screening for agrochemicals” (AMERICAN CYANAMID COMPANY, priority 1998, dated 2000).

Structures are written as SMILES. Entries after “also recorded” stand apart in the source; their conditions may differ.

Experiment [1] relates to LOX2:Hv:1. The experiment can be described thus: Northern blot analysis of LOX2:Hv:1 mRNA accumulation in primary leaves of barley. The experiment is classed as in vivo, Barley (Hordeum vulgare L.). As to conditions: for kinetics of LOX2:Hv:1 transcript accumulation: 45 µM JM compared with 45 µM SA; for accumulation of LOX transcript: barley seedlings, powdery mildew susceptible and mlo-resistant cultivar, DCINA soil drench 10 mg active ingredient/L soil volume, BTH 1 mM spray. The procedure:
(§1) Barley (Hordeum vulgare L.) mlo-resistant cultivar Salome as well as the susceptible cultivars Pallas and Manchuria were grown as described for example by Hause et al., J. Plant Physiol. 150, 127-132 (1997). Inoculation with conidia of Blumeria graminis f. sp. hordei race A6 (Wiberg, Hereditas 77, 89-148 (1974)) were performed at a density of 10 conidia per mm^2 with the primary leaf of seven-days-old seedlings at the onset of the light period.
(§2) Segments of seven-days-old primary leaves were freshly harvested and either floated on water, freshly prepared (±) JM, or Na-salicylate.
(§3) DCINA (2,6-dichloroisonicotinic acid), formulated as 25 % active ingredient with a wettable powder (WP) carrier (Métraux et al., Advances in molecular genetics of plant microbe interactions. Vol. 1, Kluwer Academic Publishers, Dordrecht, The Netherlands, pp. 432-439 (1991)), was applied to 7-days-old barley seedlings as a soil drench at a final concentration of 10 mg active ingredient/L soil volume. BTH (benzo[1,2,3]-thiadiazole-7-carbothioic acid S-methyl ester) was applied at a concentration of 1 mM by spraying a formulation with WP in distilled water. Controls were treated with WP.
Total RNA was extracted as described for example by Hause et al., Plant Cell Physiol. 37, 641-649 (1996). Northern blot analysis was performed with digoxigenin-Iabelled cDNAs (DIG-High Prime labelling Kit, Boehringer Mannheim) of barley LOX2:Hv:1 (Vörös et al., loc. cit) and barley PR1b (Bryngelsson et al., Mol. Plant-Microbe Int. 7, 267-275 (1994)).

In experiment [2] the test system is PR1b. In words: Northern blot analysis of PR1b mRNA accumulation in barley. The experiment is classed as in vivo, Barley (Hordeum vulgare L.). To be noted: in response to treatment. The procedure:
as §1, §2, §3
Total RNA was extracted as described for example by Hause et al., Plant Cell Physiol. 37, 641-649 (1996). […]

Experiment [3] concerns PR genes. To be noted: wheat; cited from earlier work.
Experiment [4] has as its system powdery mildew fungus. As to conditions: barley, against the powdery mildew fungus; cited from earlier work.

Consider `CCC=CCC1C(=O)CCC1CC(=O)OC` (racemic) [JM, jasmonic acid methyl ester], for which, in experiment [1], the “kinetics of LOX2:Hv:1 transcript accumulation” value is listed as “No differences”. Besides, the “sensitivity of LOX2:Hv:1 (dose-response curves)” value in experiment [1] (JM compared with SA treatment, Fig. 1) is “slightly higher sensitivity”. The “PR1b mRNA accumulation” value in experiment [2] was “not found”.

`CSC(=O)c1cccc2nnsc12` [BTH, benzo[1,2,3]-thiadiazole-7-carbothioic acid S-methyl ester]: the “activation of PR genes” value in experiment [3] is “strongly activate”. Moreover, the “accumulation of LOX transcript” value in experiment [1] is recorded as “accumulation of LOX transcript; also recorded: activate LOX”. In experiment [1] (in all experiments), the “LOX2:Hv:1 induction, BTH compared with DCINA” value is recorded as “stronger induced”. Further, in experiment [2], the “PR1b mRNA accumulation” value is “not pathogen related genes like PR1b”.

For `O=C(O)c1cc(Cl)nc(Cl)c1` [DCINA, 2,6-dichloroisonicotinic acid], the “activation of PR genes” value in experiment [3] is listed as “strongly activate”. Besides, the “accumulation of LOX transcript” value in experiment [1] is “accumulation of LOX transcript”.

Consider `O=C(O)c1ccccc1O` [SA, salicylic acid], for which the “activation of PR genes” value in experiment [3] is “strongly activate”. In experiment [1], the “kinetics of LOX2:Hv:1 transcript accumulation” value is reported as “No differences”. The “LOX2:Hv:1 expression” value in experiment [1] (treatment with SA, cultivar Salome, leaf segments, 24 hours (Fig. 1)) is “induced”. Further, in experiment [4], the “activation of SAR” value was “activated SAR”.
